Data from patent US20130085073A1, “CONTINUOUS EXTENSION AND DEBLOCKING IN REACTIONS FOR NUCLLEIC ACIDS SYNTHESIS AND SEQUENCING” (ILLUMINA CAMBRIDGE LIMITED, priority 2011, published 2013).

What was measured:
Pol 217 = Pol 217 catalyzed primer extension: incorporation of blocked nucleotide analog into primer DNA (urea gel analysis); type: biochemical; details: for incorporation of phosphodiester blocked nucleotides by Pol 217: nucleotide 10 μM
Description: Pol 217 (15 μg/ml) was incubated at 30° C. in Pol buffer (50 mM TRIS pH 7.5, 0.05% Tween 20, 6 mM MgSO4, 1 mM EDTA, 50 mM NaCl) with 20 nM DNA (P21 primer annealed to Diff template AG). A time zero aliquot was taken for each concentration and then pppT3′PO4(EO2 was added at 10, 5, 2 or 1 μM final concentration to start the reaction. Tubes are incubated at 30° C. and aliquots were taken at 0.33, 0.66, 1, 2, 5, and 15 mins from the 4 reaction tubes for quenching and 15% urea acrylamide gel analysis. 1 mM dNTPs were added to the remaining 4 reaction tubes and after a further 10 mins an aliquot was taken for gel analysis (chase).
Pol 217 was tested in Pol buffer at 55° C.
Incorporation of gamma hexynyl-pppT3′PO4Me2 was tested in Pol buffer at 65° C. with 10 μM nucleotide and 15 μg/mlpolymerase (Pol217 or Bst). A time zero sample was removed before initiation of the reaction with nucleotide and aliquots were quenched for gel analysis at 0.33, 0.66, 1, 2, 5 and 15 minutes.

Bst = molecular target: T1, Bst (Geobacillus stearothermophilus, UniProt P52026); assay: Bst polymerase primer extension with blocked nucleotide analog (gel analysis); type: biochemical
T1 sequence (P52026 1-876): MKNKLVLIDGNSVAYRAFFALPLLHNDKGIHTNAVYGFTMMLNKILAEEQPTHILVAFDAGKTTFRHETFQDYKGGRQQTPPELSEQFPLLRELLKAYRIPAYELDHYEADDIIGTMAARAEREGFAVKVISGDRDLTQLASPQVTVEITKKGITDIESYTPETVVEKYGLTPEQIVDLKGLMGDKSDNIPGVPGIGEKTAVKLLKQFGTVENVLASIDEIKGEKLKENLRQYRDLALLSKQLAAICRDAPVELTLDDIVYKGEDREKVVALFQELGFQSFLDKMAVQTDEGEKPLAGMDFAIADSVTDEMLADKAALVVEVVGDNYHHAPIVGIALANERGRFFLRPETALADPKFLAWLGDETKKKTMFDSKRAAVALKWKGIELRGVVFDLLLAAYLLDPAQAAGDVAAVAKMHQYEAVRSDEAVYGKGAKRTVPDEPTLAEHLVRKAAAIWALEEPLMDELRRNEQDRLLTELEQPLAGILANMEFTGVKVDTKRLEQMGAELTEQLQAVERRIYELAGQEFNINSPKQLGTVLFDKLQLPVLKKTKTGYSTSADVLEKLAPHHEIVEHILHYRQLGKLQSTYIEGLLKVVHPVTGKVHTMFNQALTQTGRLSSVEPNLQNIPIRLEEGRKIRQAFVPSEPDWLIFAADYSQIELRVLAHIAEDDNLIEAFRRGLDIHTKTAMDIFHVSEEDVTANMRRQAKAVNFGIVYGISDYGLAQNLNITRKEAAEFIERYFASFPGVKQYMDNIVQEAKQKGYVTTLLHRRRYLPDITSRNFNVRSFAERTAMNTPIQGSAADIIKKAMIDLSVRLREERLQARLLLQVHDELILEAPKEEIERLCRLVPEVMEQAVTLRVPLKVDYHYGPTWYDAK
Description: Incorporation of gamma hexynyl-pppT3′PO4Me2 was tested in Pol buffer at 65° C. with 10 μM nucleotide and 15 μg/mlpolymerase (Pol217 or Bst). A time zero sample was removed before initiation of the reaction with nucleotide and aliquots were quenched for gel analysis at 0.33, 0.66, 1, 2, 5 and 15 minutes. After 15 minutes, 5 μl of 100 μM dNTPs was added to the remaining reaction tubes (˜20 μl) and incubation continued for 10 mins before a chase aliquot was taken for gel analysis. Thus, for each polymerase there was a time course of 0, 0.33, 0.66, 1, 2, 5, 15 mins and chase shown from left to right across the gel in FIG. 13.

E. coli EndoIV = E. coli EndoIV (Escherichia coli, UniProt P0A6C1); details: for EndoIV removal of phosphotriester blocking moiety from primer DNA extended with the nucleotide: large quantities of E. coli EndoIV, 37° C. or 55° C., extended incubation times
Description: Primer DNA with either a 3′ PO4PrOH block (−ve and EndoIV) or a free 3′OH (+ve) was radiolabelled and bound to an A template strand. […] Aliquots were removed at 0, 5, 15, 30 and 60 min for quenching and gel analysis (left to right respectively). “+ve” is the time course for unblocked DNA plus EndoIV, “EndoIV” is blocked DNA plus E. coli EndoIV and “−ve” is blocked DNA without E. coli EndoIV.
Similar reactions to those described above in the context of FIG. 7 were conducted, but the blocked extension products were generated using Pol 217 to incorporate various phosphotriester nucleotides onto the primer DNA. […] Phosphotriester blocking moieties tested included pppT3′PO4(Et)2, pppT3′PO4(Et)(Pr-Cap), pppT3′PO4(Et)(PrOH), pppT3′PO4MeBu and pppT3′PO4(Et)(SSOH).
A ^33P biotinylated 10 A template hairpin (62mer) was bound to magnetic streptavidin beads (4 pmoles) (1) and incubated with Pol217 (15 μg/ml) in Pol buffer and 10 μM pppT3′PO4MeBu for 10 mins at 55° C. […] The DNA was then removed to a magnet and washed twice in 1×B+W buffer (5 mM TRIS pH 7.5, 0.5 mM EDTA, 1M NaCl) and then washed twice in Ada buffer (50 mM TRIS pH 8.3, 1 mM EDTA, 3 mM DTT, 1 mg/ml BSA). The DNA was then incubated in Ada buffer with Ada protein (225 pmoles) at 37° C. for 3 h (3). The DNA was then removed to a magnet and washed twice in 1×B+W and then twice in NEB 3 buffer and then divided into 2 aliquots. To one aliquot (4) (2 pmoles) was added Pol 217 (15 μg/ml), E. coli EndoIV 10 U and FFT (5 μM) in NEB 3 buffer to a total volume of 100 μl. The sample was incubated at 37° C. and at time points of 0, 3, 10, 30, 60 and 120 mins a 5 μl sample was removed and quenched for 12% gel analysis. After 120 mins 10 μl of 100 μM dNTP was added to the remaining sample to chase the primer to the end (if not blocked) and an aliquot was taken and quenched after a further 20 mins at 37° C. […] The second aliquot (2 pmoles) was treated similarly, but no E. coli Endo IV was added to the reaction mixture (w/o EndoIV).
Eight pmoles of biotinylated 10 A hairpin DNA (62mer) bound to magnetic streptavidin beads (1) was incubated with Pol 217 (15 μg/ml) in Pol buffer with 10 μM pppT3′PO4(Et)(SSOH) in 200 μl at 55° C. for 15 mins (2). Then 2 μl of 100 mM tri(hydroxylpropyl)phosphine (THP) was added to the tube and the samples incubated for a further 5 mins at 55° C. […] The DNA was then removed to a magnet and washed twice in 1×B+W and twice in NEB 3 buffer. The DNA was then divided into two aliquots. To the first aliquot (4 pmoles) was added 4 U E. coli EndoIV, 15 μg/ml Pol 217, 10 μM pppT3′PO4MeBu in 100 μl of NEB3 buffer (4) and the other aliquot (4 pmoles) had the same additions but no EndoIV (w/o EndoIV). At time points of 0, 1, 5, 10, 30, 60 and 120 mins and sample was removed and quenched for 12% gel analysis.

Pol 427 = Pol 427 catalyzed primer extension: incorporation of blocked nucleotide analog (gel analysis); type: biochemical; details: Pol buffer, 37° C., 1 h, Pol 427 30 μg/ml
Endonuclease IV = Endonuclease IV (Escherichia coli, UniProt P0A6C1); details: 0.1 mM nucleotide, 500 units/mL Endonuclease IV, 37° C., pH 7.9, up to 3 days
Excerpt: Aliquots were taken at set time points and analyzed by HPLC chromatography.

[1] = Fluorescence emission of quencher/dye labelled nucleotide; type: physicochemical
Description: The fluorescence emission of an approx. 4 μM solution of the quencher/dye labelled nucleotide 22, a 4 μM solution of Atto532 dye and an equimolar mixture of Atto532 dye and quencher labelled nucleotide 21 (4 μM) were measured in 10 mM Tris buffer pH 8.0, between 500 nm and 700 nm (excitation wavelength: 532 nm) (FIG. 23). The fluorescence of the nucleotide 22 was approximately 1500-fold lower than that of the free dye in solution, and approximately 1100-fold lower than the equimolar solution of the free dye and the quencher labelled nucleotide 21.

[2] = system: Pol 217, E. coli Endo IV, Ada protein; assay: Single pot multi-cycle extension with Pol 217, Ada protein and Endo IV (gel); type: biochemical; details: 37° C., 10 μM nucleotide
Description: A tube was incubated at 37° C. containing Pol 217 (15 μg/ml-16.5 pmoles), E. coli Endo IV (10 U), Ada protein (1000 pmoles) in 100 μl of 50 mM TRIS pH 8.0, 1 mg/ml BSA, 50 mM NaCl, 10 mM MgSO4 with 2 pmoles of primer (21mer) annealed to 10 A template DNA. After a time zero aliquot was removed and quenched for gel analysis, the reaction was started by the addition of 10 μM pppT3′PO4MeBu. At time points of 10, 30, 60, 120 and 240 minutes an aliquot was removed and quenched for gel analysis. Negative controls are shown where one protein was left out of the mixture in turn. A positive control for incorporation is shown of 10 μM FFT.

Vent exo- = Vent exo- (Thermococcus litoralis, UniProt P30317, D141A/DEL1082-1471/DEL495-1032/E143A); assay: Vent exo- polymerase primer extension with blocked nucleotide analog (gel analysis); type: biochemical; details: conditions tested; chase lane showed active polymerase
Vent exo-, sequence (P30317 other isoform, or with tags, fused parts or gaps D141A/E143A/DEL495-1032/DEL1082-1471): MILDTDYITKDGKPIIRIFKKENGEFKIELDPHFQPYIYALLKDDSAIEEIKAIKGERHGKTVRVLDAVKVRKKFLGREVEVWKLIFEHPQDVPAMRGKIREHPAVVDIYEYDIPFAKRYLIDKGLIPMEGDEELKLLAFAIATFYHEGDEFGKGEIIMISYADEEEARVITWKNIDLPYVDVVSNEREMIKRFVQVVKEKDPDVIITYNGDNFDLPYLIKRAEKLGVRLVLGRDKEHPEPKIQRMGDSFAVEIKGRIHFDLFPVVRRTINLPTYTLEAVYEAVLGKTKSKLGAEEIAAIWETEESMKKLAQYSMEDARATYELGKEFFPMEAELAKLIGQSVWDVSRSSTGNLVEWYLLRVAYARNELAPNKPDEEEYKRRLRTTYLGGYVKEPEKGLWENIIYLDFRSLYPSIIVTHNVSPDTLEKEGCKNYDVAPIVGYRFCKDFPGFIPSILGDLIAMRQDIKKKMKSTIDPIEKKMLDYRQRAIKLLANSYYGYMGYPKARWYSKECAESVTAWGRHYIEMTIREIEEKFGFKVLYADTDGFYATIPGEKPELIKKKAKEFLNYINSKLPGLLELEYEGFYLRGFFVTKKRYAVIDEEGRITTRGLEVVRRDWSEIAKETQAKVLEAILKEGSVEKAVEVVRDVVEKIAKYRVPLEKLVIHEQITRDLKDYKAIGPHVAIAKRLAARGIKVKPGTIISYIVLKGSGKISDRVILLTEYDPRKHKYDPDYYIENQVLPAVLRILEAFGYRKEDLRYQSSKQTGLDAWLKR

Klenow = molecular target: T2, Klenow (Escherichia coli, UniProt P00582); assay: Klenow polymerase primer extension with blocked nucleotide analog (gel analysis); type: biochemical; details: conditions tested; chase lane showed active polymerase
T2 construct: Bst, Vent exo- and Klenow polymerases were tested
T2 sequence (P00582 324-928): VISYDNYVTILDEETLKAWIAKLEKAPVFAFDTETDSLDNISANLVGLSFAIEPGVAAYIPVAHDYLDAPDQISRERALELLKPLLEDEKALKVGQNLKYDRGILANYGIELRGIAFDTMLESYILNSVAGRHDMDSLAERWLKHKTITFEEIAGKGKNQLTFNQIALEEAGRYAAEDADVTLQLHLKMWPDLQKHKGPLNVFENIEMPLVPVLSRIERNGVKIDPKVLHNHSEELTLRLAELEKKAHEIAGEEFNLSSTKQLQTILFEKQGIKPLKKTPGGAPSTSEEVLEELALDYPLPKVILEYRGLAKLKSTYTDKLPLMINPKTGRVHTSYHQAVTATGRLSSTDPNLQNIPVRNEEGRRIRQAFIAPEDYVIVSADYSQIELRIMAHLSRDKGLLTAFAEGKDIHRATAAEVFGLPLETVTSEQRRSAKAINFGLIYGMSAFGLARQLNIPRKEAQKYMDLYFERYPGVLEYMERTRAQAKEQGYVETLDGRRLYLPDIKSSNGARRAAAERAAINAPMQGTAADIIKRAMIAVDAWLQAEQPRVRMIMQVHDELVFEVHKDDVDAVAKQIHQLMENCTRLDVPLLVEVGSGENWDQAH

[3] = approx. 4 μM, 10 mM Tris pH 8.0, excitation 532 nm

## Cc1cn(C2CC(OP(=O)(O)OCCCO)C(COP(=O)(O)OP(=O)(O)OP(=O)(O)O)O2)c(=O)[nH]c1=O (stereo not drawn) [pppT3′PO4PrOH]
Pol 217; Pol buffer, 55° C.
  incorporation of phosphodiester blocked nucleotides by Pol 217: substantial incorporation was not observed

## C#CCCCCOP(=O)(O)OP(=O)(O)OP(=O)(O)OCC1OC(n2cc(C)c(=O)[nH]c2=O)CC1OP(=O)(OC)OC (stereo not drawn) [gamma hexynyl-pppT3′PO4Me2, 5′-(γ-(5-hexynyl)triphosphate) 3′-(O,O′-dimethyl phosphate) thymidine]
Pol 217; Pol buffer, 65° C., 10 μM nucleotide, 0-15 min then dNTP chase
  incorporation by Pol 217 and chase: an incorporation band of n+1 was generated over time which did not chase away
Bst; Pol buffer, 65° C., 10 μM nucleotide
  band for extended primer with Bst: absent

## CCOP(=O)(O)O[C@H]1C[C@H](n2cc(C)c(=O)[nH]c2=O)O[C@@H]1COP(=O)(O)OP(=O)(O)OP(=O)(O)O [pppT3′PO4Et, 5′ triphosphate 3′ (O-ethyl phosphate) thymidine]
Pol 217; Pol buffer, 55° C.
  incorporation of phosphodiester blocked nucleotides by Pol 217: low level incorporation was observed

## CCOP(=O)(OCCCO)OC1CC(n2cc(C)c(=O)[nH]c2=O)OC1COP(=O)(O)OP(=O)(O)OP(=O)(O)O (stereo not drawn) [pppT3′PO4(Et)(PrOH)]
E. coli EndoIV
  EndoIV removal of phosphotriester blocking moiety from primer DNA extended with the nucleotide: failed to allow subsequent incorporation

## CCOP(=O)(OCc1cc2c(cc1[N+](=O)[O-])OCO2)O[C@H]1C[C@H](n2cc(C)c(=O)[nH]c2=O)O[C@@H]1COP(=O)(O)OP(=O)(O)OP(=O)(O)O (stereo partly drawn) [pppT3′PO4(Et)(NPIP), 5′-triphosphate 3′-(O-ethyl, O′-(6-nitropiperonyl)phosphate) thymidine]
Pol 427
  incorporation into primer by Pol 427: converted to n+1

## CCOP(=O)(O)OC1CC(n2cc(C)c(=O)[nH]c2=O)OC1COP(=O)(O)O (stereo not drawn) [pT-3′PO4Et, 5′ monophosphate T-3′PO4Et]
Endonuclease IV
  removal of 3′ phosphodiester blocking moiety from free nucleotide by EndoIV (HPLC): No deblocked pT-3′PO4Et was observed even after 3 days

## 5′-(γ-(BHQ2-peg3)triphosphate) 3′-(O-(12-(Atto532)amidododecyl)phosphate)thymidine [nucleotide 22]
[1]; [3]
  fluorescence lower than that of the free dye (Atto532) in solution: approximately 1500 fold
  fluorescence lower than the equimolar solution of free dye and quencher labelled nucleotide 21: approximately 1100 fold
[1]; dye and quencher both on the nucleotide
  quenching of fluorescence emission by BHQ2: > 99%

## CCCCOP(=O)(OC)O[C@H]1C[C@H](n2cc(C)c(=O)[nH]c2=O)O[C@@H]1COP(=O)(O)OP(=O)(O)OP(=O)(O)O (stereo partly drawn) [pppT3′PO4MeBu, 5′ triphosphate 3′ (O-methyl, O′-butyl phosphate) thymidine]
Pol 217; Pol buffer, 55° C., 10 μM nucleotide, 10-15 mins
  incorporation into 10 A hairpin DNA on streptavidin beads by Pol 217: converted to n+1
[2]; 10-240 minutes
  length of extension product in single pot reaction, all three proteins present: gradually increased over the time course from n+1 to n+2, then n+3, then n+4
[2]; no Ada or no EndoIV
  incorporation in single pot reaction in the absence of Ada or EndoIV: a single incorporation event occurred
E. coli EndoIV; Ada protein 37° C. 3 h, then E. coli EndoIV 10 U, Pol 217, FFT, 37° C., 0-120 mins
  EndoIV unblocking of extended primer after Ada protein treatment: unblocked by EndoIV
E. coli EndoIV
  EndoIV removal of phosphotriester blocking moiety from primer DNA extended with the nucleotide: failed to allow subsequent incorporation

## CCOP(=O)(OCC)O[C@H]1C[C@H](n2cc(C)c(=O)[nH]c2=O)O[C@@H]1COP(=O)(O)OP(=O)(O)OP(=O)(O)O [pppT3′PO4(Et)2, 5′-triphosphate 3′-(O,O′-diethyl phosphate) thymidine]
Pol 217; 30° C., 1 mM dNTPs chase, 10 mins
  extension of primer after chase with natural dNTPs (3′ block): creates a 3′ blocked primer
Pol 217; 30° C., Pol buffer, nucleotide 10, 5, 2 or 1 μM, 20 nM DNA, 0-15 min
  incorporation into primer DNA by Pol 217 (n+1 band): extension by one base
Pol 217; 65° C., incorporation buffer, 10 μM nucleotide
  time to complete incorporation by Pol217: ≤ 20 s
Bst; conditions tested, chase lane showed active polymerase
  incorporation by Bst polymerase: did not show any incorporation bands
Vent exo-
  incorporation by Vent exo- polymerase: did not show any incorporation bands
Klenow
  incorporation by Klenow polymerase: did not show any incorporation bands
E. coli EndoIV
  EndoIV removal of phosphotriester blocking moiety from primer DNA extended with the nucleotide: failed to allow subsequent incorporation

## Cc1cn(C2CC(OP(=O)(O)O)C(COP(=O)(O)OP(=O)(O)OP(=O)(O)O)O2)c(=O)[nH]c1=O (stereo not drawn) [pppT 3′PO4]
Pol 217; Pol buffer, 55° C.
  incorporation of phosphodiester blocked nucleotides by Pol 217: incorporation was observed but the band on the gel chased away

## 5′-(γ-(BHQ2-peg3)triphosphate) 3′-(O-(12-aminododecyl)phosphate)thymidine [nucleotide 21]
[1]; 4 μM each, 10 mM Tris pH 8.0, excitation 532 nm
  quenching of free Atto532 dye by quencher labelled nucleotide in equimolar mixture: does not quench efficiently
